The target in data set [1] is T1, inositol monophosphatase (EC 3.1.3.25) (Bos taurus, UniProt P20456).
T1 construct: host or cells: animal brain or recombinant E. coli expressing animal IMPase
T1 sequence (P20456 1-277): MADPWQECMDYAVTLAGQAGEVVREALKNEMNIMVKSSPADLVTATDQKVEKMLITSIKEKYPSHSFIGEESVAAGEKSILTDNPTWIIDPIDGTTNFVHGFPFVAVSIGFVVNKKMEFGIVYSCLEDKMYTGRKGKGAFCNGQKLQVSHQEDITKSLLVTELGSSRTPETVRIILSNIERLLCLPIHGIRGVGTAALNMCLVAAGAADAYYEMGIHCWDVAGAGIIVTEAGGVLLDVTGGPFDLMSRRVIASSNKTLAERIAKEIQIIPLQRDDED
As to the kind of experiment: inhibition of inositol monophosphatase (IMPase, EC 3.1.3.25); phosphate liberated from 4 mM 2-glycerolphosphate, molybdate coloration. In kind it is biochemical, animal. As to conditions: for IC50: Table 1, pH 7.5, 4 mM 2-glycerolphosphate, 5 ug/ml IMPase, 30 minutes, read-out: IC50 (amount of inhibitor required to inhibit the enzyme activity by 50%) (converted). The source says:
For determining said activity, IMPase with a purity higher than 90% as judged by SDS-PAGE (sodium dodecyl sulphate polyacrylamide gel electrophoresis) is purified as described in P. D. Pelton and A. J.
Ganzhorn, Journal Biolog. Chem., 267, 1992, pp. 5916-5920. The enzyme can be purified from animal brain or from recombinant E. coli strains expressing animal IMPase. Although crude enzyme preparations can also be used it is preferable to use purified enzyme. The purified enzyme routinely has a specific activity of 25 μmol of Pi/min/mg of protein as determined in a standard assay (P. V. Attwood et al., Biochem. Jour., 1988, 253, pp. 387-394) with 4 mH 2-glycerolphosphate as substrate.
The enzyme activity may be determined according to A. J. Ganzhorn and M. C. Chanal, Biochem., 1990, 29; the reaction mixture contains 50mM Tris-HCl, pH 7.5, 2 mM magnesium chloride and 0.1 mM EGTA. Then, 5 ug/ml of IMPase and 4 mM of 2-glycerolphosphate substrate are added to the reaction mixture; alternatively, it is also possible to add the substrate directly into the reaction mixture, before adding the enzyme.
The reaction is considered terminated after 30 minutes from the addition of the substrate or the enzyme (depending on which one is added later); the liberated phosphate is determined by molybdate coloration (P. V. Attwood et al., Biochem. Jour., 1988, 253, pp. 387-394) at 350 nm with a Shimadzu spectrophotometer UV 2100.
The enzyme reaction is performed either in the absence or in the presence of various concentrations of 6'β-Stachybotrydial or MDL63394 to determine the amount of inhibitor required to inhibit the enzyme activity by 50% (IC50); the results are reported in Table 1, compared with the activity of L-671,776.

In the next data set the test system is complement system. Conditions: literature statement; cited from earlier work.
A further data set has as its system inositol monophosphatase. As to conditions: literature statement; cited from earlier work.
The conditions of data set [2]: cited from earlier work.
Data set [3] deals with manic symptoms / bipolar disorder. Conditions: cited from earlier work.

“Also recorded” adds a separate entry of the source.

As a reminder, the IC50 is the concentration needed to halve the response being measured. In the case of `C[C@@H]1CCC2C(C)(C)[C@@H](O)CC[C@]2(C)[C@@]12Cc1c(O)cc(C=O)c(C=O)c1O2` (stereo partly drawn) [6'β-Stachybotrydial], the IC50 in data set [1] was 64.7 µM. For the same molecule, in data set [1] (qualitative statement), the “inhibitory activity against the enzyme inositol monophosphatase” value is “show inhibitory activity”.

Consider `C[C@@H]1CCC2C(C)(C)[C@H](O)C(O)C[C@]2(C)[C@@]12Cc1c(O)cc(C=O)c(C=O)c1O2` (stereo partly shown) [K-76], for which the “inhibitor of the complement system” value in the data set on complement system is reported as “inhibitor of the complement system”.

As for `CC1CCC2C(C)(C)C(O)CCC2(C)C12Cc1c(O)cc(CO)c(C=O)c1O2` [L-671,776], the IC50 in data set [1] was 463 µM. In addition, the IMPase-inhibiting activity result in the data set with inositol monophosphatase is listed as “shows the above IMPase-inhibiting activity”.

On to lithium, for which the adverse effects result in data set [2] (lithium therapy) is “can cause a transient leukocytosis, can cause patients with a borderline thyroid reserve to become clinically hypothyroid, and can decompensate cardiac status due to shifts in fluids and electrolytes; also recorded: Structural lesions in kidney, such as interstitial fibrosis, tubular atrophy and glomerular sclerosis; also recorded: tremor, weight gain, diarrhea and skin rash”. The “occurrence of polyuria-polydipsia syndrome” value in data set [2] (treated patients) is listed as “up to 60%”. Also, the “time to exert antimanic effect” value in data set [3] (acute bipolar disorder) is 7 to 10 days. Besides, in data set [3] (manic patients), the “antimanic / prophylactic effect” value is “highly specific in alleviating manic symptoms; also recorded: clear prophylaxis against disease recurrences and deterioration has been demonstrated”. Further, the IMPase-inhibiting activity result in the data set with inositol monophosphatase was “inhibits the activity of said enzyme”.

The values above are taken from US5854036A, “Sesquiteterpenic dervatives” (Gruppo Lepetit S.p.A., priority 1994, dated 1998).
